Measured values: patent US6239125A, “Azetidinone derivatives for the treatment of HCMV infections” (Boehringer Ingelheim (Canada) Ltd., priority 1998, dated 2001)
Where a name gives a salt, the structure may show the parent alone. Read-outs that look alike come from different tables or passages of the source. Non-standard residues stand in square brackets, D forms with d. Residues, ends and D or L forms follow the SMILES beside them. Tyr(3-NO2) = N[C@@H](Cc1ccc(O)c([N+](=O)[O-])c1)C(=O)O; 2Abz = Nc1ccccc1C(=O)O

How the values were obtained:
[1] = target: T1, HCMV No protease (Human cytomegalovirus, UniProt P16753); experiment: HCMV No Protease Assay (fluorogenic substrate, IC50); assay type: biochemical; settings: fluorogenic substrate cleaved by HCMV No protease
T1 sequence (P16753 1-256): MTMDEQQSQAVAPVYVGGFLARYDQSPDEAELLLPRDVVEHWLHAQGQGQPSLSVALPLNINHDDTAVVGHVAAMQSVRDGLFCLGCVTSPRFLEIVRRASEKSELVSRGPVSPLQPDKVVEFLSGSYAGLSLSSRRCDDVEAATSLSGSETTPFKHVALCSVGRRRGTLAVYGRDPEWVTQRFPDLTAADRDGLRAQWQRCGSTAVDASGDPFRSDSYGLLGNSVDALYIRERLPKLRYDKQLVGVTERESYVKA

[2] = target: T1, HCMV No protease; experiment: as above; assay type: biochemical; settings: HCMV No protease 100 nM, substrate 5 μM, 2.5 h at 30°, pH 8; Table 1 and Table 2
Experimental: This particular assay determines the ability of a test compound to inhibit the activity (IC50) of HCMV protease. More specifically, in the assay described herein, the inhibitory activity of the test compound is evaluated on the basis of its ability to interfere with the HCMV No protease cleavage of a fluorogenic peptide substrate which in turn is based on the maturation cleavage site of the enzyme.
1. HCMV No Protease Assay
Material & Methods: Fluorescence measurements were recorded on a Perkin-Elmer LS-50B spectrofluorimeter equipped with a plate reader accessory. UV measurements were recorded on a Thermomax® microplate reader from Molecular Devices Corporation, Menlo Park, Calif., USA.
The fluorescence increase upon cleavage of the Ala-Ser amide bond was monitored using excitation λ=312 nm (slit 2.5 nm) and emission λ=415 nm ([…]). A protocol adaptable to a 96-well plate format was designed for the determination of IC50 values of inhibitors.
No quenching was required before fluorescence measurement since the total scanning time by the plate reader accessory was brief relative to the duration of the reaction. The aqueous incubation buffer contained 50 mM tris(hydroxymethyl)aminomethane-HCl pH 8, 0.5M Na2 SO4, 50 mM NaCl, 0.1 mM EDTA, 1 mM tris(2-carboxyethyl)phosphine.HCl, 3% v/v DMSO and 0.05% w/v casein. The final concentrations of HCMV No protease (expressed in terms of total monomer concentration) and substrate were 100 nM and 5 μM respectively. IC50 values were obtained through fitting of the inhibition curve to a competitive inhibition model using SAS NLIN procedure. The mode of inhibition was determined by measurements of the initial rates (in cuvettes) at various substrate concentrations in the buffer as described above.

[3] = test system: HCMV (strain AD169, ATCC VR-538); experiment: Plaque Reduction Assay (PRA), HCMV-infected Hs-68 cells; assay type: cell-based, human cytomegalovirus (HCMV)
Experimental: B. Plaque Reduction Assay (PRA): Hs-68 cells (ATCC # CRL 1635) were seeded in 12-well plates at 83,000 cells/well in 1 mL of DMEM medium (Gibco Canada Inc.) supplemented with 10% fetal bovine serum (FBS, Gibco Canada Inc.). The plates were incubated for 3 days at 37° to allow the cells to reach 80-90% confluency prior to the assay.
The medium was removed from the cells by aspiration. The cells were then infected with approximately 50 PFU of HCMV (strain AD169, ATCC VR-538) in DMEM medium supplemented with 5% inactivated FBS (assay medium). (DMEM medium is commercially available and has been described by R. Dulbecco et al., Virology 1959, 8, 396.) The virus was allowed to adsorb to cells for 2 h at 37°. Following viral adsorption, the medium was removed from the wells by aspiration. The cells were then incubated with or without 1 mL of appropriate concentrations of test reagent in assay medium. Occasionally, test compounds were added 24 h post-infection. After 4 days of incubation at 37°, the medium was exchanged with fresh medium containing test compound and 4 days later the cells were fixed with 1% aqueous formaldehyde and stained with a 2% violet solution in 20% ethanol in water. Microscopic plaques were counted using a stereomicroscope. Drug effects were calculated as a percent reduction in the number of plaques in the presence of each drug concentration compared to the number observed in the absence of drug. Ganciclovir was used as a positive control in all experiments.

[4] = Cytotoxic effects, tetrazolium salt (MTT) metabolic assay; assay type: cell-based; settings: cytotoxicity, Table 1 and Table 2, read-out: TC50 (the source's name)
Experimental: Cytotoxic effects noted as TC50 in the following tables were determined according to the tetrazolium salt (MTT) metabolic assay, F. Denizot and F. Lang, J. Immun. Meth., 1986, 89, 271.

[5] = Human betaherpesvirus 5, Hs68, plaque reduction, Hs-68 cells, HCMV strain AD169, Table 1 and Table 2, read-out: EC50

Structure (SMILES): CC(C)C[C@H](NC(=O)[C@H](CCCNC(=N)N)NC(=O)[C@H](CO)NC(=O)[C@H](CO)NC(=O)[C@H](C)NC(=O)[C@H](CC(N)=O)NC(=O)[C@@H](NC(=O)[C@@H](NC(=O)c1ccccc1N)C(C)C)C(C)C)C(=O)N[C@@H](Cc1ccc(O)c([N+](=O)[O-])c1)C(=O)N[C@@H](CCCNC(=N)N)C(=O)O (H-[2Abz]VVNASSRL[Tyr(3-NO2)]R-OH)
- Kcat /KM [1]: 260 M⁻¹ s⁻¹

Structure (SMILES): CC(C)C[C@@H](CS[C@H]1CC(=O)N1C(=O)NCc1ccccc1)NC(=O)[C@@H](NC(=O)OC(C)(C)C)C(C)(C)C [Entry 101]
- IC50 [2]: 0.4 µM
- EC50 [3, 5]: > 11 µM
- CC50 [4]: > 11 µM

Structure (SMILES): C[C@@H](NC(=O)N1C(=O)C[C@@H]1Sc1ccccc1)c1ccccc1 [Entry 102]
- EC50 [3, 5]: 40 µM
- CC50 [4]: > 100 µM

Structure (SMILES): C[C@@H](NC(=O)N1C(=O)C[C@@H]1SCc1ccccc1)c1ccccc1 [Entry 103]
- IC50 [2]: 12.4 µM
- EC50 [3, 5]: > 5 µM
- CC50 [4]: > 5 µM

Structure (SMILES): C[C@@H](NC(=O)N1C(=O)C[C@@H]1SCCc1ccccc1)c1ccccc1 [Entry 104]
- IC50 [2]: 6.5 µM
- EC50 [3, 5]: > 4 µM
- CC50 [4]: > 4 µM

Structure (SMILES): C[C@@H](NC(=O)N1C(=O)C[C@@H]1SC[C@H](CCS(C)(=O)=O)NC(=O)[C@@H](NC(=O)OC(C)(C)C)C(C)(C)C)c1ccccc1 [Entry 105]
- IC50 [2]: 0.2 µM
- EC50 [3, 5]: 110 µM
- CC50 [4]: > 250 µM

Structure (SMILES): C[C@@H](NC(=O)N1C(=O)C[C@H]1SC[C@H](CCS(C)(=O)=O)NC(=O)[C@@H](NC(=O)OC(C)(C)C)C(C)(C)C)c1ccccc1 [Entry 106]
- IC50 [2]: 0.62 µM
- EC50 [3, 5]: 230 µM
- CC50 [4]: > 250 µM

Structure (SMILES): C[C@@H](NC(=O)N1C(=O)C[C@H]1[S+]([O-])c1ccccc1)c1ccccc1 (stereo partly drawn) [Entry 107]
- IC50 [2]: 9 µM

Structure (SMILES): C[C@@H](NC(=O)N1C(=O)C[C@@H]1[S+]([O-])c1ccccc1)c1ccccc1 (stereo partly drawn) [Entry 108]
- IC50 [2]: 4 µM

Structure (SMILES): C[C@@H](NC(=O)N1C(=O)C[C@@H]1SCc1ccncc1)c1ccccc1 [Entry 109]
- IC50 [2]: 2.1 µM
- EC50 [3, 5]: 65 µM
- CC50 [4]: > 250 µM

Structure (SMILES): C[C@@H](NC(=O)N1C(=O)C[C@@H]1SCc1cccnc1)c1ccccc1 [Entry 110]
- IC50 [2]: 2 µM
- EC50 [3, 5]: 96 µM
- CC50 [4]: > 200 µM

Structure (SMILES): C[C@@H](NC(=O)N1C(=O)C[C@@H]1SCc1ccccn1)c1ccccc1 [Entry 111]
- IC50 [2]: 2.5 µM
- EC50 [3, 5]: 60 µM
- CC50 [4]: 180 µM

Structure (SMILES): C[C@@H](NC(=O)N1C(=O)C[C@@H]1SCC(=O)c1ccccc1)c1ccccc1 [Entry 112]
- IC50 [2]: 1 µM
- EC50 [3, 5]: > 37 µM
- CC50 [4]: > 37 µM

Structure (SMILES): CC[C@@H](NC(=O)N1C(=O)C[C@@H]1SCc1ccccn1)c1ccccc1 [Entry 114, 4(S)-{(2-pyridinylmethyl)thio}azetidin-2-one-1-carboxylic acid (1(R)-phenylpropyl)amide hydrochloride]
- IC50 [2]: 1.2 µM
- EC50 [3, 5]: 80 µM
- CC50 [4]: > 200 µM

Structure (SMILES): CC[C@@H](NC(=O)N1C(=O)C[C@@H]1SC[C@H](CC(C)C)NC(=O)[C@@H](NC(=O)CC(C)(C)C)C(C)(C)C)c1ccccc1 [Entry 115]
- IC50 [2]: < 0.06 µM
- EC50 [3, 5]: > 250 µM
- CC50 [4]: > 250 µM

Structure (SMILES): O=C1C[C@H](SCc2ccccn2)N1C(=O)N[C@H](CO)c1ccccc1 [Entry 116]
- IC50 [2]: 3.6 µM

Structure (SMILES): CC(C)C[C@@H](CO[C@@H]1CC(=O)N1C(=O)NCc1ccccc1)NC(=O)OC(C)(C)C [Entry 201]
- IC50 [2]: 44 µM

Structure (SMILES): CC(C)C[C@@H](CO[C@@H]1CC(=O)N1C(=O)NCc1ccccc1)NC(=O)[C@@H](NC(=O)OC(C)(C)C)C(C)(C)C [Entry 202]
- IC50 [2]: 1.3 µM
- EC50 ([3]; Human betaherpesvirus 5, AD169, Hs68): 64 µM
- CC50 [4]: > 52 µM

Structure (SMILES): CC(C)C[C@@H](CO[C@H]1CC(=O)N1C(=O)N[C@H](C)c1ccccc1)NC(=O)[C@@H](NC(=O)OC(C)(C)C)C(C)(C)C [Entry 203]
- IC50 [2]: 0.32 µM
- EC50 [3, 5]: > 49 µM
- CC50 [4]: > 49 µM

Structure (SMILES): CC(C)C[C@@H](CO[C@@H]1CC(=O)N1C(=O)NCc1ccccc1)NC(=O)[C@@H](NC(=O)CC(C)(C)C)C(C)(C)C [Entry 204]
- IC50 [2]: 0.16 µM

Structure (SMILES): CN(C(=O)CC(CO[C@@H]1CC(=O)N1C(=O)NCc1ccccc1)NC(=O)CC(C)(C)C)C(C)(C)C (stereo partly drawn) [Entry 205]
- IC50 [2]: 5 µM
- EC50 [3, 5]: > 250 µM
- CC50 [4]: > 250 µM

Structure (SMILES): C[C@@H](NC(=O)N1C(=O)C[C@H]1Oc1ccc(Cl)cc1)c1ccccc1 [Entry 206]
- IC50 [2]: 1.6 µM

Structure (SMILES): C[C@@H](NC(=O)N1C(=O)C[C@@H]1Oc1ccc(Cl)cc1)c1ccccc1 [Entry 207]
- IC50 [2]: 0.8 µM
- EC50 [3, 5]: 250 µM
- CC50 [4]: > 250 µM

Structure (SMILES): C[C@@H](NC(=O)N1C(=O)C[C@@H]1OCCNC(=O)c1ccc(NC(=O)CC(C)(C)C)cc1)c1ccccc1 [Entry 208]
- IC50 [2]: 21 µM

Structure (SMILES): COC(=O)[C@@H](C)O[C@@H]1CC(=O)N1C(=O)N[C@H](C)c1ccccc1 [Entry 209]
- IC50 [2]: 21.5 µM

Structure (SMILES): COC(=O)[C@H](C)O[C@H]1CC(=O)N1C(=O)N[C@H](C)c1ccccc1 [Entry 210]
- IC50 [2]: 3.8 µM
